Reference: publication PMC6934184, “Selective DNA-PKcs inhibition extends the therapeutic index of localized radiotherapy and chemotherapy” (The Journal of Clinical Investigation, 2019)

Target: T1, CDK8/cyclin C (Homo sapiens, UniProt P49336)
T1 construct: purchased Thermo Fisher Scientific (Life Technologies) SelectScreen
Test: SelectScreen LanthaScreen
Format: binding
Conditions: 1 µM
In short: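 Percent values come from Thermo SelectScreen profiling of NU5455, combining activity and binding assays. CSF1R was run in Z'LYTE format at Km app ATP, and CAMK1 in Adapta format with ATP listed at 10.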

T1 sequence (P49336 whole entry): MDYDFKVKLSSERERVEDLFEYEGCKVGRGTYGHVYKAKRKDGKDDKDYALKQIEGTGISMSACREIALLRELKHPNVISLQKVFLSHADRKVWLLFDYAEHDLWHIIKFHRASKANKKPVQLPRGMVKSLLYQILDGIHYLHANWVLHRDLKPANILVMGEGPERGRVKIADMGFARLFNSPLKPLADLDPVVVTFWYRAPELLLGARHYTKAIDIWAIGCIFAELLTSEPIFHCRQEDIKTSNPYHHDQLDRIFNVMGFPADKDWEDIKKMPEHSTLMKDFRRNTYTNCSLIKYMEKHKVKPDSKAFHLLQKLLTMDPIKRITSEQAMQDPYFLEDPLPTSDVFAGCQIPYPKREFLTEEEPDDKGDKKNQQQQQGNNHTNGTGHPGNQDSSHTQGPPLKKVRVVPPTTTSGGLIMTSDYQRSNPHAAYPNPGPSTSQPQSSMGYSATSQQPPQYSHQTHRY
T1 sequence (P24863 whole entry partner): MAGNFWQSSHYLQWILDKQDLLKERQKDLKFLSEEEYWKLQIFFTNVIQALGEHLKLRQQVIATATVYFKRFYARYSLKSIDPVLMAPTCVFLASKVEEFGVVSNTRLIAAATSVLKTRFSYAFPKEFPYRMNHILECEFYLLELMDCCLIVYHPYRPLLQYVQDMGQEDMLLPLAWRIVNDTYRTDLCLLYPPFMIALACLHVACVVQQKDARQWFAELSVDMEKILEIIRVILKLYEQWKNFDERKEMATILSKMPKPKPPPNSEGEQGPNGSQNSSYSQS

CN(C(=O)CN1CCOCC1)c1ccc2sc3c(-c4cccc5c(=O)cc(N6CC7CCC(C6)O7)oc45)cccc3c2c1 [NU5455]
% displacement: 0.1%
